Data taken from patent US7320679B2, “Therapeutic use of growth factor, and delivery device, especially for the treatment of intimal hyperplasia” (Ark Therapeutics, Ltd., priority 1996, dated 2008).
Entries after “also recorded” stand apart in the source; their conditions may differ.

Key:
[1] = system: carotid arteries (intimal thickening); experiment: Collar-induced intimal thickening in rabbit carotid arteries after adventitial plasmid/liposome gene transfer; assay type: in vivo, New Zealand White rabbits; conditions: L-NAME 70 mg/kg/d in drinking water; 7 days after gene transfer
Source text: The model preserved EC integrity and permitted direct extravascular gene transfer without any intravascular manipulation.
Gene Transfer: Intimal thickening was induced in the carotid arteries of thirty-two New Zealand White rabbits by inserting an inert silicone collar around the arteries under a general anaesthesia (Booth et al, Atherosclerosis (1989) 76:257-268). […] No intravascular manipulations were involved in any steps of the studies. […] Plasmids used for the studies were isolated from E. coli cultures (DH5α) using Qiagen Mega columns and purified using three phenol/chloroform extractions and one ethanol precipitation (Ausubel et al, eds. Current Protocols in Molecular Biology. New York, N.Y.: Greene Publishing Associates and John Wiley & Sons (1991) 4.2.3-4.2.4) were adjusted to 1 μg/μl and analysed to be free of any microbiological or endotoxin contamination (Limulus assay, detection limit 0.2 ng). […] Differences in the intima/media thickness ratios between the groups were analysed by ANOVA, followed by modified t-test (*p<0.05). […]
Gene transfer was carried out as described in Example 1.1. […] Animals were sacrificed 7 days after gene transfer and analysed for the intima/media thickness ratio and histology as described above (Ylä-Herttuala et al, Arteriosclerosis (1986) 6: 230-236; Ylä-Herttuala et al (1990) supra). […]

[2] = system: 205 kD protein corresponding to VEGF receptor; experiment: Anti-phosphotyrosine immunoprecipitation/immunoblot in HUVEC; assay type: cell-based, human; conditions: 100 μM L-NAME 1 h pretreatment; 10 ng/ml VEGF 10 min
Procedure: In some experiments, cells were pretreated for 1 h with 100 μM L-NAME and subsequently treated either with or without. […] The medium was removed and cells were rapidly lysed at 4° C. by addition of 10 mM Tris/HCl (pH 7.6), 5 mM EDTA, 50 mM NaCl, 30 mM sodium pyrophosphate, 50 mM NaF, 0.1 mM Na3VO4, 1 mM PMSF and 1% Triton X-100 (lysis buffer). Lysates were clarified by centrifugation at 15000×g for 10 min, and immunoprecipitations were performed by incubating clarified lysates with PY20 anti-phosphotyrosine mAb for 2 h at […] Immunoprecipitates were collected by incubating lysates for a further 1 hour with protein A-agarose. Immunoprecipitates were washed three times with lysis buffer and proteins were then extracted with 2×SDS-PAGE sample buffer. After SDS-PAGE, immunoprecipitated proteins were transferred to membranes and then immunoblotted with PY20 mAb.

NO production in HUVEC = experiment: Nitrite (NO) production in HUVEC, capillary detection method; assay type: cell-based, human
Procedure: Nitrite production was measured using capillary detection method (Leone et al, in Methods in Nitric Oxide Research, Feelisch and Stanler, eds. John Wiley & Sons, New York (1996) 499-508).

With COC(=O)[C@@H](N)CCCNC(=N)N[N+](=O)[O-] [L-NAME] the “effect of L-NAME on the difference in intimal thickening between VEGF- and lacZ-transfected arteries” value [1] was “abolished”, the “effect of L-NAME on VEGF-induced phosphorylation” value [2] was “abolishes the response to VEGF; also recorded: completely abolished” and the “effect of L-NAME on VEGF-induced NO production” value (NO production in HUVEC; 100 μM L-NAME) was “completely abolished”. The “nitrite production level after L-NAME” value (NO production in HUVEC; L-NAME 100 μM pretreatment 1 hour, then 25 ng/ml VEGF 10 minutes) was ~17 µM.
